Measured values from ChEMBL document CHEMBL1137386, “Pyrrolidine carboxamides as a novel class of inhibitors of enoyl acyl carrier protein reductase from Mycobacterium tuberculosis” (J Med Chem, 2006).
pIC50: −log10 of the molar value. In brackets after ≈: the same amount, converted by molar mass. Activity calls are given as the source filed them. The rule behind the calls is not given here.

Columns and labels:
[1] = molecular target: T1, Enoyl-[acyl-carrier-protein] reductase [NADH] (Mycobacterium tuberculosis, UniProt P9WGR1)
T1 sequence (P9WGR1 whole entry): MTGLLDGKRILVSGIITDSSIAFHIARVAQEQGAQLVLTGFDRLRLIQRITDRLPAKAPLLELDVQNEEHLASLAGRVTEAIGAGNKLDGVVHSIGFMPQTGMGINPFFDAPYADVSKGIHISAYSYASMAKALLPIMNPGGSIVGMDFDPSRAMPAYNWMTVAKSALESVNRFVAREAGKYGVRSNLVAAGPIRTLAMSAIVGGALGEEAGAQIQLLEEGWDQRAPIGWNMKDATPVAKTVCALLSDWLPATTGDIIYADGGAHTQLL
Description: (§1) Inhibition of Mycobacterium tuberculosis InhA

[2] = tested on: Mycobacterium tuberculosis; test: Antibacterial activity against Mycobacterium tuberculosis H37Rv by alamar blue assay; assay type: functional
[3] = molecular target: T2, Enoyl-[acyl-carrier-protein] reductase [NADH] (Mycobacterium tuberculosis) (UniProt P9WGR1); conditions: 20 uM
T2 sequence (whole entry): T1 sequence (P9WGR1 whole entry)

[4] = molecular target: T2, Enoyl-[acyl-carrier-protein] reductase [NADH] (Mycobacterium tuberculosis)
Description: as §1

[5] = molecular target: T2, Enoyl-[acyl-carrier-protein] reductase [NADH] (Mycobacterium tuberculosis); conditions: 2.4 uM
Description: Inhibition of Mycobacterium tuberculosis InhA at 2.4 uM

Compound	pIC50 [1]	Activity [3]	other results
O=C(Nc1cc(Br)cc(C(F)(F)F)c1)C1CC(=O)N(C2CCCCC2)C1 (configuration not stated)	6.07	–	MIC [2]: 62.5 µM (≈ 27.1 µg/mL)
O=C(C1CC(=O)N(C2CCCCC2)C1)N1CCN(c2ccccc2)CC1 (configuration not stated)	–	inactive	–
NC(=O)c1cccc(NC(=O)C2CC(=O)N(C3CCCCC3)C2)c1 (configuration not stated)	–	–	Activity [4]: inactive
CC(=O)c1cccc(NC(=O)C2CC(=O)N(C3CCCCC3)C2)c1 (configuration not stated)	–	–	Activity [4]: inactive
O=C(Nc1cccc(-c2ccccc2)c1)C1CC(=O)N(C2CCCCC2)C1 (stereo in doubt; p24a)	5.68	–	–
O=C(Nc1cccc(-c2ccccc2)c1)C1CC(=O)N(C2CC3CCC2C3)C1 (configuration not stated)	6.34	–	–
O=C(Nc1cccc(O)c1)C1CC(=O)N(C2CCCCC2)C1 (configuration not stated)	–	–	Activity [4]: inactive
O=C(Nc1cccc(-c2ccccc2)c1)C1CC(=O)N(C2CCCCC2)C1 (stereo in doubt; p24b)	6.59	–	–
CS(=O)(=O)Nc1cccc(NC(=O)C2CC(=O)N(C3CCCCC3)C2)c1 (configuration not stated)	–	–	Activity [4]: inactive
Cc1ccc(Cl)cc1NC(=O)C1CC(=O)N(C2CCCCC2)C1 (configuration not stated)	6.01	–	–
CN(Cc1c2ccccc2cc2ccccc12)C(=O)C1CC(=O)N(C2CCCCC2)C1 (configuration not stated)	6.12	–	MIC [2]: 125 µM (≈ 51.8 µg/mL)
O=C(Nc1cccc(OCc2ccccc2)c1)C1CC(=O)N(C2CCCCC2)C1 (configuration not stated)	–	–	MIC [2]: 125 µM (≈ 49.1 µg/mL)
COc1cccc(NC(=O)C2CC(=O)N(C3CCCCC3)C2)c1 (configuration not stated)	–	–	Activity [4]: inactive
O=C(Nc1nnc(Cc2ccccc2)s1)C1CC(=O)N(C2CCCCC2)C1 (configuration not stated)	–	inactive	–
O=C(Nc1cccc(Br)c1)C1CC(=O)N(c2ccccc2)C1 (configuration not stated)	4.87	–	–
CN(Cc1c2ccccc2cc2ccccc12)C(=O)C1CC(=O)N(C2CCCCCCC2)C1 (configuration not stated)	6.21	–	MIC [2]: 62.5 µM (≈ 27.7 µg/mL)
O=C(Nc1cccc(Cc2ccccc2)c1)C1CC(=O)N(C2CCCCC2)C1 (configuration not stated)	6.39	–	–
O=C(Nc1nnc(CCc2ccccc2)s1)C1CC(=O)N(C2CCCCC2)C1 (configuration not stated)	–	inactive	–
CCc1nnc(NC(=O)C2CC(=O)N(C3CCCCC3)C2)s1 (configuration not stated)	–	inactive	–

Compound	pIC50 [1]	Activity [3]	other results
CN(Cc1c2ccccc2cc2ccccc12)C(=O)C1CC(=O)N(C2CCCCCC2)C1 (configuration not stated)	6.49	–	MIC [2]: 125 µM (≈ 53.6 µg/mL)
O=C(C1CC(=O)N(C2CCCCC2)C1)N1CCOCC1 (configuration not stated)	–	inactive	–
O=C(Nc1cccc(Br)c1)C1CC(=O)N(C2CCCCC2)C1 (configuration not stated)	6.05	–	–
COCc1nnc(NC(=O)C2CC(=O)N(C3CCCCC3)C2)s1 (configuration not stated)	–	inactive	–
O=C(Nc1cc(Cl)cc(Cl)c1)C1CC(=O)N(C2CCCCC2)C1 (stereo in doubt; d11b)	6.70	–	–
O=C(C1CC(=O)N(C2CCCCC2)C1)N1CCc2ccccc21 (configuration not stated)	–	–	inhibition ([4]; concentration not given here): 65%
CN(Cc1c2ccccc2cc2ccccc12)C(=O)C1CC(=O)N(C2CC3CCC2C3)C1 (configuration not stated)	6.07	–	MIC [2]: 125 µM (≈ 53.3 µg/mL)
O=C(Nc1cccc(-c2ccccc2)c1)C1CC(=O)N(C2CCCCC2)C1 (stereo in doubt; p24)	6.41	–	–
CN1CCN(C(=O)C2CC(=O)N(C3CCCCC3)C2)CC1 (configuration not stated)	–	inactive	–
CCC(C)NC(=O)C1CC(=O)N(C2CCCCC2)C1 (configuration not stated)	–	inactive	–
O=C(Nc1cc(Cl)cc(Cl)c1)C1CC(=O)N(C2CCCCC2)C1 (stereo in doubt; d11a)	5.09	–	–
O=C(Nc1cc(Cl)cc(Cl)c1)C1CC(=O)N(C2CCCCC2)C1 (stereo in doubt; d11)	6.41	–	–
N#Cc1c(NC(=O)C2CC(=O)N(C3CCCCC3)C2)sc2c1CCCC2 (configuration not stated)	–	inactive	–
O=C(Nc1cc(-c2ccccc2)c(O)c(-c2ccccc2)c1)C1CC(=O)N(C2CCCCC2)C1 (stereo in doubt; p64a)	–	–	inhibition [5]: 72.7%
O=C(NC1CCCC1)C1CC(=O)N(C2CCCCC2)C1 (configuration not stated)	–	inactive	–
Cc1nnc(NC(=O)C2CC(=O)N(C3CCCCC3)C2)s1 (configuration not stated)	–	inactive	–
O=C(Nc1cc(-c2ccccc2)c(O)c(-c2ccccc2)c1)C1CC(=O)N(C2CCCCCC2)C1 (configuration not stated)	6.57	–	–
O=C(NC1CCCCC1)C1CC(=O)N(C2CCCCC2)C1 (configuration not stated)	–	inactive	–
